Residue numbers refer to the chain shown, from its start. Where two headings read alike, the source gives them in different places.
How the values were obtained:
BaF3-FLT3-ITD-D835V = target: T1, BaF3-FLT3-ITD-D835V (Homo sapiens, UniProt P36888, INS600HVDFREYEYD/D835V, cells depend on it); assay: CTB viability assay CS0048, BaF3-FLT3-ITD-D835V; assay type: cell-based, murine; settings: CellTiter Blue viability, 72 hours
T1 sequence (P36888 with tags, fused parts or gaps INS600HVDFREYEYD/D835V): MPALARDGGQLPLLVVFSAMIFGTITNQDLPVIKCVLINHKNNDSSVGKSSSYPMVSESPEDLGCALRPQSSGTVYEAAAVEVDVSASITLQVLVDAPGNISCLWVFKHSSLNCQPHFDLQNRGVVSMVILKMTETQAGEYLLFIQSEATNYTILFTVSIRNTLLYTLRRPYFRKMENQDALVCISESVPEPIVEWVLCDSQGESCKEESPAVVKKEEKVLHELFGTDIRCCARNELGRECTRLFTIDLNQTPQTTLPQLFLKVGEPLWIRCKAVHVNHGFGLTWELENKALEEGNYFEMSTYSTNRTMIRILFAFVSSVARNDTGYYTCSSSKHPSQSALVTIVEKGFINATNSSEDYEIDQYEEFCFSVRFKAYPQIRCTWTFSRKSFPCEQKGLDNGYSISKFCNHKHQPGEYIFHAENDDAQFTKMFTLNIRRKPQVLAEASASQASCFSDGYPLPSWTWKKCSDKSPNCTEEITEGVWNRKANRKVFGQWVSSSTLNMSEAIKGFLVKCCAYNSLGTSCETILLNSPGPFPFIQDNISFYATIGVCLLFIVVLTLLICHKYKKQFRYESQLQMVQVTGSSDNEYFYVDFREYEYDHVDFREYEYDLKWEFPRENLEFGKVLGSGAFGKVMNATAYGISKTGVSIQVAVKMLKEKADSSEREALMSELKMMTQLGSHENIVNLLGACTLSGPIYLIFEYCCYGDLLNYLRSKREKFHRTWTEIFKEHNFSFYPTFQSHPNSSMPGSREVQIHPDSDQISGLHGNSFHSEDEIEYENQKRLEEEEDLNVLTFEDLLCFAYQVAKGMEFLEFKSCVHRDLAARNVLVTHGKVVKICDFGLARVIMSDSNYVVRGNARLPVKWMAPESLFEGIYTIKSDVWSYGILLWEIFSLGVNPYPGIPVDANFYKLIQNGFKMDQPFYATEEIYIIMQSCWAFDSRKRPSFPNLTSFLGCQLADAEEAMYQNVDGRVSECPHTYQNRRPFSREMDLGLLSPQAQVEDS
Method in brief: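 Murine Ba/F3 cells made IL-3-independent by retroviral human FLT3-ITD (MV4-11 ITD), ±F691L or D835V, serum-starved overnight in 0.5% FBS. 3-fold compound dilutions applied 72 h at 37° C; viability by CellTiter Blue fluorescence (ex 560/em 590 nm), normalized to DMSO, IC50 from duplicate plates.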

BaF3-FLT3-ITD = target: T2, BaF3-FLT3-ITD (Homo sapiens, UniProt P36888, INS600HVDFREYEYD, cells depend on it); assay: CTB viability assay CS0046, BaF3-FLT3-ITD; assay type: cell-based, murine; settings: CellTiter Blue viability, 72 hours
T2 sequence (P36888 with tags, fused parts or gaps INS600HVDFREYEYD): T1 sequence (P36888 with tags, fused parts or gaps INS600HVDFREYEYD/D835V) with V845D
From the text: Gene constructs containing the human FLT3 sequences FLT3-ITD, FLT3-ITD-F691L, FLT3-ITD-D835V and FLT3-D835V were synthesized by reverse translation of the human protein sequences, with codons optimized for mammalian expression. Sequence of the internal tandem duplication (ITD) was based on the MV4-11 ITD sequence. Synthetic DNA constructs were cloned into the pMSCV puro retroviral vector (Clontech) and transfected into the EcoPack2-293 packaging cell line (Clontech) to generate retroviruses that contain the different FLT3 constructs. Viruses were transduced into the IL-3-dependent, murine […] cell line, Ba/F3, and selected for puromycin resistance and IL-3 independence. All cell lines were cloned by limiting dilution and clones were used for all subsequent cell assays. Overexpression of the FLT3 mutants in the Ba/F3 cells results in constitutive phosphorylation of the exogenous FLT3 protein, which is required for IL-3 independence.
Cell lines were serum starved overnight in media containing 0.5% FBS, plated at 15,000 cells/well in 96-well white-walled tissue culture plates, and 3-fold serial dilutions of test compounds of Formula I were added for 72 hours at 37° C. CellTiter Blue (CTB, Promega) was added and incubated for an additional 3 hours at 37° C. Fluorescence was read at 560 nm excitation, 590 nm emission. Wells with CTB+media only were used for background subtraction, and the fluorescence of compound-treated cells was normalized to the fluorescence of DMSO-treated cells. IC50s were determined using Igor Pro software. All compounds are assayed in duplicate cell plates.

[1] = Table 4, compounds from WO 2011/022473, read-out: Cell Assay: CS0048: BaF3-FLT3-ITD-D835V CTB: IC50
[2] = Table 4, compounds from WO 2011/022473, read-out: Cell Assay: CS0046: BaF3-FLT3-ITD CTB: IC50
[3] = BaF3-FLT3-ITD-D835V cells, read-out: Cell Assay: CS0048: BaF3-FLT3-ITD-D835V CTB:IC50
[4] = BaF3-FLT3-ITD cells, read-out: Cell Assay: CS0046:BaF3-FLT3-ITD CTB:IC50
[5] = Table 3, read-out: Cell Assay: CS0048: BaF3-FLT3-ITD-D835V CTB: IC50
[6] = Table 3, read-out: Cell Assay: CS0046: BaF3-FLT3-ITD CTB: IC50

CC(C)(c1cc(NC(=O)Cc2ccc(-c3ccc(NCCN4CCOCC4)nc3)cc2)no1)C(F)(F)F [reference compound]
GI50 (BaF3-FLT3-ITD-D835V; [1]): 145 nM
GI50 (BaF3-FLT3-ITD; [2]): 0.597 nM

CC(C)(C)c1cc(NC(=O)Nc2ccc(-c3cnc(NC4CCOCC4)nc3)cn2)no1 [reference compound]
GI50 (BaF3-FLT3-ITD-D835V; [1]): 673 nM
GI50 (BaF3-FLT3-ITD; [2]): 6.6 nM

CCNc1ccc(-c2ccc(CC(=O)Nc3cc(C(C)(C)C)on3)cc2)cn1 [reference compound]
GI50 (BaF3-FLT3-ITD-D835V; [1]): 94.2 nM
GI50 (BaF3-FLT3-ITD; [2]): 0.252 nM

Cc1nn(C)c(C)c1Nc1ncc(-c2ccc(CC(=O)Nc3cc(C4(C(F)(F)F)CC4)on3)c(F)c2)cn1 [P-029, 2-[2-fluoro-4-[2-[(l,3,5-trimethylpyrazol-4-yl)amino]pyrimidin-5-yl]phenyl]-N-[5-[1-(trifluoromethyl)cyclopropyl]isoxazol-3-yl]acetamide]
GI50 (BaF3-FLT3-ITD-D835V; [3]): 10 to 50 nM
GI50 (BaF3-FLT3-ITD; [4]): 10 to 50 nM

CC(C)(C)c1cc(NC(=O)Nc2ccc(-c3cnc(NC4CC4)nc3)cn2)no1 [reference compound]
GI50 (BaF3-FLT3-ITD-D835V; [1]): 585 nM
GI50 (BaF3-FLT3-ITD; [2]): 5.91 nM

Cn1cc(Nc2ncc(-c3ccc(CC(=O)Nc4cc(C5(C(F)(F)F)CC5)on4)c(F)c3)cn2)cn1
GI50 (BaF3-FLT3-ITD-D835V; [5]): 0.259 nM
GI50 (BaF3-FLT3-ITD; [6]): 0.0861 nM

O=C(O)Cn1cc(Nc2ncc(-c3ccc(CC(=O)Nc4cc(C5(C(F)(F)F)CC5)on4)c(F)c3)cn2)cn1 [P-078, 2-[4-[[5-[3-fluoro-4-[2-oxo-2-[[5-[1-(trifluoromethyl)cyclopropyl]isoxazol-3-yl]amino]ethyl]phenyl]pyrimidin-2-yl]amino]pyrazol-1-yl]acetic acid]
GI50 (BaF3-FLT3-ITD-D835V; [3]): 50 to 100 nM
GI50 (BaF3-FLT3-ITD; [4]): 10 to 50 nM

CNc1ccc(-c2ccc(CC(=O)Nc3cc(C(C)(C)C)on3)cc2)cn1 [reference compound]
GI50 (BaF3-FLT3-ITD-D835V; [1]): 92 nM
GI50 (BaF3-FLT3-ITD; [2]): 0.146 nM

O=C(Cc1ccc(-c2cnc(Nc3ccccc3)nc2)cc1F)Nc1cc(C2(C(F)(F)F)CC2)on1
GI50 (BaF3-FLT3-ITD-D835V; [5]): 0.772 nM
GI50 (BaF3-FLT3-ITD; [6]): 0.152 nM

Source: patent publication US10829484B2, “Compounds and methods for kinase modulation, and indications therefor” (Plexxikon Inc., priority 2015, dated 2020)
